Data taken from article PMC11123948, “Leucoverdazyls as Novel Potent Inhibitors of Enterovirus Replication” (Pathogens, 2024).
Structures can show the parent of a compound that is named as a salt.

Experiments:
in vitro [1] = settings: African green monkey; for CC50 at 24 h: Vero cells
Procedure: (§1) Permissive cells were seeded in 96-well plates in Eagle’s minimal essential medium (MEM) supplemented with 10% FBS. After 24 h, the medium was removed, and the wells were washed with saline. Compounds w [...

Coxsackie B3 virus = assay: microbe, parasite or virus in culture; type: cell-based, Coxsackievirus B3 (CVB3, strain Nancy); settings: 24 h, Coxsackie B3 virus (Nancy, original), viral yield reduction in Vero cells
[2] = Antioxidant activity, DPPH assay; type: physicochemical; settings: DPPH 200 μM in methanol, 30 min at 30 °C; vitamin C as reference; result in words
Procedure: Antioxidant activity was evaluated by spectrophotometric monitoring of the hydrogen transfer reaction with a stable chromogen radical, 2,2-diphenyl-1-picrylhydrazyl (DPPH, Sigma-Aldrich, St. Louis, MO, USA), using vitamin C (Vc) as described before. A solution of DPPH in methanol with a concentration of 200 μM was added to a solution of dihydrotetrazines in the same solvent (concentrations 5 to 50 μM). The reaction vessel (test tube) was wrapped in foil and kept for 30 min at 30 °C, and the optical density was measured at λ 517 nm (DPPH absorption maximum). The antioxidant activity (AO) was calculated by the formula AO = (1 − Atest/Acontr) × 100%, where Atest is the optical density of a solution containing a compound to be tested and DPPH, and Acontr is the optical density of a solution containing DPPH alone. The half-inhibitory concentration (IC50) corresponding to the reduction of the initial DPPH concentration by 50% was determined from the DPPH inhibition percentage plotted against concentrations of compounds 2 through 5 (Figure 1) using the OriginPro 8.5 program (OriginLab Corporation, Northampton, MA, USA) (Model DoseResp).

CVA16 = assay: Viral yield reduction assay, CVA16; type: cell-based, Coxsackievirus A16 (clinical isolate); settings: CVA16, RD cells
ECHO30 = assay: Viral yield reduction assay, ECHO30; type: cell-based, ECHO30 (clinical isolate); settings: ECHO30, RD cells
CVB4 (strain Powers) = assay: Viral yield reduction assay, CVB4; type: cell-based, Coxsackievirus B4 (CVB4; settings: Vero cells
CVB5 = assay: Viral yield reduction assay, CVB5; type: cell-based, Coxsackievirus B5 (clinical isolate); settings: CVB5, Vero cells
RD cells = assay: Cytotoxicity assay (MTT) in RD cells; type: cell-based; settings: 24 h incubation with compound only
Vero cells = assay: Cytotoxicity assay (MTT) in Vero cells
Procedure: as §1

CVA24 = assay: Viral yield reduction assay, CVA24; type: cell-based, Coxsackievirus A24 (clinical isolate); settings: CVA24, RD cells
CVB3-WT and -R variants = assay: Growth kinetics of CVB3 WT and R variants with and without 1a; type: cell-based, Coxsackievirus B3; settings: Vero cells, MOI 0.001, 1a 7 ug/mL, up to 72 h
HSV1 = assay: microbe, parasite or virus in culture; type: cell-based, herpes simplex virus type 1; settings: Human alphaherpesvirus 1; HSV1, Vero cells, viral yield reduction
CVB4 Powers = assay: Thermostability assay; design: species or system Coxsackievirus B4 (CVB4, strain Powers); settings: compound 10 µg/mL, thermal gradient 37–55 °C for 2 min
Procedure: The thermostability assay was performed as described previously. The CVB4 strain was chosen because it is sensitive to the pleconaril used in this assay as a reference compound. The compound concentration used in the assay was selected according to the results of preliminary thermostability assays. Briefly, CVB4 Powers (10^4 TCID50) was pre-incubated with the compound (10 µg/mL), pleconaril (10 µg/mL), or an equal volume of MEM (virus control) for 30 min at +37 °C in sterile thin-walled 200 μl PCR-tubes (5 tubes per each treatment condition) in a BioRad CFX PCR-machine (BioRad Laboratories, Inc., Hercules, CA, USA). Then, a thermal gradient of 37–55 °C for 2 min, followed by rapid cooling to 4 °C, was applied. Subsequently, the infectious viral activities of the samples were quantified by end-point dilution assay.

CVB4 = assay: Time-of-addition assay; type: cell-based, Coxsackievirus B4 (CVB4, strain Powers); settings: CVB4 in Vero cells, 1a 5 μg/mL; for Interval of addition with highest inhibitory activity: pleconaril 10 μg/mL, titer at 8 h
in vitro [3] = settings: dog
in vitro [4] = settings: human
[5] = system: Influenza A/Puerto Rico/8/34; assay: Viral yield reduction assay, influenza A; type: cell-based, Influenza A virus (strain A/Puerto Rico/8/1934 (H1N1)); settings: Influenza A virus, Influenza A/Puerto Rico/8/34, MDCK cells
CVB3 WT = assay: microbe, parasite or virus in culture; type: cell-based, Coxsackievirus B3 (Nancy strain), passaged without 1a; settings: Enterovirus B, CVB3, Vero
Ad5 = assay: microbe, parasite or virus in culture; type: cell-based, human adenovirus type 5; settings: Human mastadenovirus C, A549
CVB3 virus = assay: Transmission electron microscopy of CVB3-infected Vero cells; settings: MOI 100, 100 µM 1a, 3 h, TEM
Procedure: Vero cells in 6-well plates were incubated with CVB3 virus, MOI = 100, at 4 °C for 1 h. Unbound virions were removed by washing the cells twice with cold MEM; a medium containing 100 µM of 1a was added. […] Cells were incubated for 3 h at 36 °C in 5% CO2. In wells with control virus, MEM without 1a was added. After incubation, cells were collected from the wells, transferred into tubes, and centrifuged at 2000× g for 15 min. Cell pellets were fixed with 1.5% glutaraldehyde in PBS overnight, followed by post-fixation with 1.5% OsO4 for 1 h and uranyl acetate for 45 min at room temperature. They were then dehydrated in graded acetone and embedded in Epon/Araldit resin (Serva Feinbiochemica, Heidelberg, Germany). Thin sections (90 nm) were stained with lead citrate and examined in a JEM-100S electron microscope (JEOL, Tokyo, Japan).

CVB3 R = assay: microbe, parasite or virus in culture; type: cell-based, Coxsackievirus B3 (Nancy strain), passaged with 1a; settings: Enterovirus B, CVB3, Vero
[6] = system: Influenza B/Florida/04/06; assay: microbe, parasite or virus in culture; type: cell-based, influenza B virus (strain B/Florida/04/06, Yamagata lineage); settings: MDCK
[7] = Cytotoxicity assay (MTT) in RD cells; type: cell-based; settings: human, 24 h incubation with compound only
SARS-CoV-2 = assay: Viral yield reduction assay, SARS-CoV-2; type: cell-based, SARS-CoV-2 virus (Wuhan strain); settings: Severe acute respiratory syndrome coronavirus 2, SARS-CoV-2, Vero cells

## C=CC1N(c2nc3ccccc3s2)N=C(c2ccccc2)NN1c1ccc(OC)cc1 (stereo not shown) [Compound 4b]
In vitro [1]
  CC50 at 24 h: > 293 µM
Coxsackie B3 virus; Enterovirus B, B3, Vero
  IC50: > 117 µM

## COc1ccc(N2CN(c3nc4ccccc4s3)N=C(c3ccccc3)N2)cc1 [Compound 1b]
In vitro [1]
  CC50 at 24 h: > 1350 µM
[2]
  Antioxidant activity (DPPH assay): most pronounced antioxidant activity
Coxsackie B3 virus; Enterovirus B, B3, Vero
  IC50: 5.4 ± 1.1 µM

## CCC1N(c2nc3ccccc3s2)N=C(c2ccccc2)NN1c1ccc(OC)cc1 (stereo not shown) [Compound 3b]
In vitro [1]
  CC50 at 24 h: 2330 ± 25.3 µM
Coxsackie B3 virus; Enterovirus B, B3, Vero
  IC50: 60.1 ± 7.2 µM

## CC1N(c2nc3ccccc3s2)N=C(c2ccccc2)NN1c1ccccc1 (stereo not shown) [Compound 2a]
In vitro [1]
  CC50 at 24 h: > 325 µM
Coxsackie B3 virus; Enterovirus B, B3, Vero
  IC50: 6.49 ± 0.8 µM

## CC1N(c2nc3ccccc3s2)N=C(c2ccccc2)NN1c1ccc(F)cc1 (stereo not shown) [Compound 2d]
In vitro [1]
  CC50 at 24 h: 49.6 ± 3.7 µM
Coxsackie B3 virus; Enterovirus B, B3, Vero
  IC50: > 49.6 µM

## N=C(N)N [Guanidine hydrochloride, reference compound]
CVA16
  IC50: 337 ± 28.3 µM
ECHO30
  IC50: 126 ± 18.2 µM
CVB4 (strain Powers)
  IC50: 496 ± 26.5 µM
CVB5
  IC50: 474 ± 33.4 µM
RD cells
  CC50: > 10500 µM
Vero cells; 24 h incubation with compound only, MTT (Table 2)
  CC50: > 5240 µM
CVA24
  IC50: 314 ± 20.1 µM

## CC1N(c2nc3ccccc3s2)N=C(c2ccccc2)NN1c1ccc(Br)cc1 (stereo not shown) [Compound 2e]
In vitro [1]
  CC50 at 24 h: 69.1 ± 5.9 µM
Coxsackie B3 virus; Enterovirus B, B3, Vero
  IC50: > 69.1 µM

## CCC1N(c2nc3ccccc3s2)N=C(c2ccccc2)NN1c1ccc(F)cc1 (stereo not shown) [Compound 3c]
In vitro [1]
  CC50 at 24 h: 360 ± 41.7 µM
Coxsackie B3 virus; Enterovirus B, B3, Vero
  IC50: 71.9 ± 6.4 µM

## CCC1N(c2nc3ccccc3s2)N=C(c2ccccc2)NN1c1ccc(Br)cc1 (stereo not shown) [Compound 3e]
In vitro [1]
  CC50 at 24 h: 946 ± 89.6 µM
Coxsackie B3 virus; Enterovirus B, B3, Vero
  IC50: > 210 µM

## CCc1ccc(N2NC(c3ccccc3)=NN(c3nc4ccccc4s3)C2C)cc1 (stereo not shown) [Compound 2c]
In vitro [1]
  CC50 at 24 h: > 303 µM
Coxsackie B3 virus; Enterovirus B, B3, Vero
  IC50: > 121 µM

## CCC1N(c2nc3ccccc3s2)N=C(c2ccccc2)NN1c1ccccc1 (stereo not shown) [Compound 3a]
In vitro [1]
  CC50 at 24 h: > 313 µM
Coxsackie B3 virus; Enterovirus B, B3, Vero
  IC50: > 125 µM

## c1ccc(C2=NN(c3nc4ccccc4s3)CN(c3ccccc3)N2)cc1 [Compound 1a]
CVB3-WT and -R variants
  Propagation of CVB3 strains in presence of 1a: the resistant strain was able to effectively propagate in contrast to the wild-type virus
CVA16; Enterovirus A
  IC50: 0.8 ± 0.2 µM
HSV1
  IC50: 46.3 ± 4.4 µM
ECHO30
  IC50: 1.6 ± 0.4 µM
CVB4 Powers
  Thermostabilizing effect on virion (infectious particles after heating): no infectious particles were detected when heated above 45 degrees
In vitro [1]
  CC50: 451 ± 51.2 µM
  CC50 at 24 h: 620 ± 52.7 µM
CVB4; added later than 6 h after adsorption of the virus
  Inhibition of viral replication on late addition: Inhibition of viral replication was not observed
CVB4
  Interval of addition with highest inhibitory activity: from −2 to 4 h post-infection
In vitro [3]
  CC50: 850 ± 78.3 µM
CVB4 (strain Powers); Enterovirus B
  IC50: 1.7 ± 0.5 µM
[2]
  Antioxidant activity (DPPH assay): most pronounced antioxidant activity
CVB5; Enterovirus B
  IC50: 1.5 ± 0.3 µM
In vitro [4]
  CC50: 501 ± 45.7 µM
[5]
  IC50: 38.7 ± 2.9 µM
CVB3 WT
  IC50: 0.48 µM
Ad5
  IC50: 43.1 ± 3.8 µM
CVB3 virus
  Examined cells with no replication organelles visible: 47 out of 49
CVB3 R
  IC50: 12.9 µM
[6]
  IC50: 40.5 ± 5.1 µM
Coxsackie B3 virus
  IC50: 1.8 ± 0.3 µM
Coxsackie B3 virus; Enterovirus B, B3, Vero
  IC50: 2.7 µM
[7]
  CC50 at 24 h: 673 ± 60.1 µM
SARS-CoV-2
  IC50: 4.5 ± 1.2 µM
Vero cells; SARS-CoV-2 row, 48 h or 24 h depending on virus life cycle, MTT
  CC50: 656 ± 70.4 µM
CVA24; Enterovirus C
  IC50: 0.9 ± 0.3 µM

## C=CC1N(c2nc3ccccc3s2)N=C(c2ccccc2)NN1c1ccccc1 (stereo not shown) [Compound 4a]
In vitro [1]
  CC50 at 24 h: > 315 µM
Coxsackie B3 virus; Enterovirus B, B3, Vero
  IC50: > 126 µM

## COc1ccc(N2NC(c3ccccc3)=NN(c3nc4ccccc4s3)C2C)cc1 (stereo not shown) [Compound 2b]
In vitro [1]
  CC50 at 24 h: 2050 ± 198 µM
Coxsackie B3 virus; Enterovirus B, B3, Vero
  IC50: 24.1 ± 3.2 µM

## C=CC1N(c2nc3ccccc3s2)N=C(c2ccccc2)NN1c1ccc(Cl)cc1 (stereo not shown) [Compound 4c]
In vitro [1]
  CC50 at 24 h: > 291 µM
Coxsackie B3 virus; Enterovirus B, B3, Vero
  IC50: 27.9 ± 3.3 µM

## Cc1cc(CCCOc2c(C)cc(-c3noc(C(F)(F)F)n3)cc2C)on1 [Pleconaril, reference compound]
CVB4 Powers
  Thermostabilizing effect on virion (infectious particles after heating): had a thermostabilizing effect
In vitro [1]
  CC50 at 24 h: 656 ± 58.4 µM
CVB4
  Interval of addition with highest inhibitory activity: between −2 and 0 h
Coxsackie B3 virus; Enterovirus B, B3, Vero
  IC50: 15.2 ± 1.6 µM

## C=CC1N(c2nc3ccccc3s2)N=C(c2ccccc2)NN1c1ccc(I)cc1 (stereo not shown) [Compound 4d]
In vitro [1]
  CC50 at 24 h: 1530 ± 17.2 µM
Coxsackie B3 virus; Enterovirus B, B3, Vero
  IC50: 51.6 ± 6.4 µM

## Clc1ccc(N2CN(c3nc4ccccc4s3)N=C(c3ccccc3)N2)cc1 [Compound 1c]
In vitro [1]
  CC50 at 24 h: 321 ± 28.2 µM
Coxsackie B3 virus; Enterovirus B, B3, Vero
  IC50: 7.4 ± 2.2 µM

## Brc1ccc(N2CN(c3nc4ccccc4s3)N=C(c3ccccc3)N2)cc1 [Compound 1d]
In vitro [1]
  CC50 at 24 h: 886 ± 90.4 µM
Coxsackie B3 virus; Enterovirus B, B3, Vero
  IC50: 6.2 ± 1.9 µM
